Source: patent US11597739B2, “Enhancing CD8+ T cells for adoptive T cell therapy by inhibiting PTPN1 (PTP1B) and PTPN2 (TC-PTP)” (The Royal Institution for the Advancement of …, priority 2017, dated 2023)

Target: TC-PTP (Homo sapiens (Human), UniProt P17706)
Experiment: Enzyme assay for TC-PTP
Type: biochemical
Details: inhibition of TC-PTP enzymatic activity
Protocol: 1) Enzyme Assay for TC-PTP
The assay was carried out at room temperature in 96 well plates. The reaction mixture in 170 μl contained 50 mM Bis-Tris (pH=6.3), 2 mM EDTA, 5 mM N,N′-dimethyl-N,N′bis(mercaptoacetyl)hydrazine (DMH) and 10 μM fluorescein diphosphare (FDP) or 6,8-difluoro-4-methylumbelliferyl phosphate (DiFMUP). 10 μl of 10 concentrations (serial dilution) of the test compound (inhibitor) dissolved in DMSO or DMSO alone for control was added to each well and the plate was mixed for 2 min. The reaction was initiated by adding 20 μl of diluted TC-PTP (50 nM for FDP, 0.5 nM for DiFMUP in 50 mM Bis/Tris (pH=6.3), 2 mM EDTA, 5 mM DMH, 20% glycerol and 0.01% Triton X-100. The phosphatase activity was followed by monitoring the appearance of the fluorescent product fluorescein monophosphate (FMP) or 6,8-difluoro-7-hydroxyl-4-coumarin (DiFMU) continuously for 15-30 min, using the Spectromax Gemini fluorescent plate reader ([…]) with excitation of 440 nm and emission at 530 nm (cutoff filter at 525 nm) for FDP and excitation at 360 nm and emission at 450 nm (cutoff filter at 435 nm) for DiFMUP. All the assays were done at least in duplicate. The initial rate of FMP or DiFMU formation is plotted against the concentration of inhibitor and the data was fitted to 4-parameter equation and the inflection point of the fit is the IC50.

Sequence of TC-PTP (P17706 whole entry, species assumed): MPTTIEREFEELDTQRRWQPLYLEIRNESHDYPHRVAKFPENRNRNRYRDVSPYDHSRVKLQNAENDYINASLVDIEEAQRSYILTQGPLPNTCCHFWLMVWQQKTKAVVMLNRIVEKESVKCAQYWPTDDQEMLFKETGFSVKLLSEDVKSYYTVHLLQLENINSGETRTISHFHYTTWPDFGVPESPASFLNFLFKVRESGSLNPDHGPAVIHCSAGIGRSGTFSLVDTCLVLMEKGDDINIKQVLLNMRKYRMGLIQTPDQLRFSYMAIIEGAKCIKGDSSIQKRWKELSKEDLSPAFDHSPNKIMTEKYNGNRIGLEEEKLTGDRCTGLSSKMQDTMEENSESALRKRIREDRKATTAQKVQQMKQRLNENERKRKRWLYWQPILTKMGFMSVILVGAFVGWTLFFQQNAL

[(3-BROMO-7-CYANO-2-NAPHTHYL)(DIFLUORO)METHYL]PHOSPHONATE [Ex. 10]
IC50: 490 nM
